# According to patent US20070003525A1, “Hydrogel compositions comprising nucleus pulposus tissue” (priority 2003, published 2007):
# Tests used:
# Assay type in all cases: cell-based
# [1] = test system: Sheep nucleus cells (SNCs)
# Procedure: The monomer solution was poured into molds and photo-polymerized using long-wave ultraviolet light at 365 nm wavelength. Polymerized hydrogels were placed into tissue culture inserts which were then placed above seeded SNCs. Cytotoxicity of unpolymerized matrix was also determined, by including inserts containing unpolymerized monomer solution. SNC seeded wells containing empty inserts served as controls. SNCs and inserts were completely immersed in TCM. […] The MTS assay measures viability of cells by a calorimetric method, wherein the MTS tetrazolium compound is bio reduced by cells into a colored formazan product which is soluble in TCM. The conversion is accomplished by dehydrogenase enzymes present in metabolically active cells.
# [2] = test system: Sheep nucleus chondrocytes; assay: MTT cytotoxicity of the photo-initiating system
# Procedure: Sheep nucleus chondrocytes were seeded in a 12-well plate at 20,000 cells/well and incubated with TCM. After allowing cells to adhere for over 48 hours, spent media was replaced with TCM containing 0 or 1000 ppm Irgacure 2959. SNCs were then exposed to long wave ultraviolet light at 365 nm wavelength for different lengths of time, followed by incubation at 37° C. MTT assay was performed at 1, 5, and 24 hours post UV exposure to assess viability of cells. The principle of the assay is similar to the MTS assay mentioned before, except that a different tetrazolium compound is used in this method.
# [3] = test system: sheep intervertebral disc nucleus pulposus cells; assay: Alcian blue assay of proteoglycan synthesis, sheep cells; conditions: 10 ng/ml
# Procedure: Human intervertebral disc cells from Example 9 were seeded and grown in 24 well plates in TCM in the presence or absence of exogenous growth factors. At various time points, TCM was aspirated out from the wells and the wells washed 3 times with PBS. The cells were then fixed with 4% paraformaldehyde (pH 7.4) for 10 min. The fixed cells were washed 2 times with PBS and then stained overnight with 0.5% Alcian blue in 0.1N hydrochloric acid (pH 1.5). After overnight staining, excess stain was rinsed out with 3 rinses of PBS. The remaining Alcian blue stain (bound to proteoglycans) was dissolved overnight into 6 M guanidine hydrochloride and the absorbance at 630 nm was measured using a spectrophotometer, providing an indication of the induction of matrix production by exogenous growth factors in human nucleus pulposus cells. […]
# Transforming growth factor-β1 (TGF-β1) and a mixture of bone-derived protein growth factors (BP) produced according to U.S. Pat. Nos. 5,290,763, 5,371,191 and 5,563,124, were tested for their effects on stimulation of proteoglycan synthesis in ovine nucleus pulposus cells. […] At these time points, the cells were fixed and the amount of proteoglycan synthesis was measured by the Alcian blue assay as described in Example 10.
# [4] = test system: sheep intervertebral disc nucleus pulposus cells; assay: ELISA of Type II collagen and chondroitin-6-sulfate production; conditions: 7 days, 10 ng/ml
# Procedure: To detect specific antigenic epitopes in the synthesized matrix, sheep intervertebral nucleus pulposus cells from Example 9, seeded and grown in monolayer, were fixed in 2% glutaraldehyde for 1 hour at room temperature. The fixed cells were washed 3 times with TBS for 5 min. each. To block non-specific antibody binding, the cells were incubated in a solution of Tris buffered saline (TBS) containing 1 mM ethylene-diamine-tetraacetic acid (EDTA), 0.05% Tween-20™, and 0.25% bovine serum albumin for 1 hour. The blocking step was followed by 3 washes with TBS for 5 min. each. The cells were incubated with the primary antibody at room temperature for 2.5 hours, and the excess primary antibody was removed by 3 washes with TBS for 5 min. each. A second incubation with blocking buffer was performed for 10 min., followed by 3 washes with TBS. […] The bound primary and secondary antibodies were detected by addition of an enzyme-specific substrate which produced a colored reaction. The colorimetric measurement was performed using a spectrophotometer, providing a quantitative measure of the presence of the bound antibodies. […]
# After incubation with growth factors for 7 days, cell cultures were fixed in 2% glutaraldehyde and the quantity of Type II collagen and chondroitin-6-sulfate produced in the cell cultures was detected by ELISA according to the procedure described in Example 11. […]
# [5] = test system: human intervertebral disc nucleus pulposus cells; assay: Alcian blue assay of proteoglycan synthesis, human cells; conditions: 10 ng/ml
# Procedure: (§1) Human intervertebral disc cells from Example 9 were seeded and grown in 24 well plates in TCM in the presence or absence of exogenous growth factors. At various time points, TCM was aspirated out from the wells and the wells washed 3 times with PBS. The cells were then fixed with 4% paraformaldehyde (pH 7.4) for 10 min. The fixed cells were washed 2 times with PBS and then stained overnight with 0.5% Alcian blue in 0.1N hydrochloric acid (pH 1.5). After overnight staining, excess stain was rinsed out with 3 rinses of PBS. The remaining Alcian blue stain (bound to proteoglycans) was dissolved overnight into 6 M guanidine hydrochloride and the absorbance at 630 nm was measured using a spectrophotometer, providing an indication of the induction of matrix production by exogenous growth factors in human nucleus pulposus cells.
# TGF-β1 and BP were tested for their effects on stimulation of proteoglycan synthesis in human nucleus cells. Human intervertebral disc nucleus pulposus cells obtained from Disc L5-S1 of a patient were cultured as described in Examples 8 and 9 and seeded into 24-well plates. After the cells adhered to the well surface, multiple dilutions of different growth factors were added. The concentrations of growth factors tested were 10 ng/ml TGF-β1, and 10 and 20 μg/ml of BP. The dilutions were prepared in TCM. The cells were fixed after 5 and 8 days of continuous exposure to growth factors and proteoglycans synthesized were detected by the Alcian blue assay as described in Example 10.
# A second experiment to test the effects of TGF-β1 and BP on proteoglycan synthesis was performed on a different human patient from that described in Example 14. Human intervertebral disc cells obtained from another patient were cultured as described in Examples 8 and 9 and seeded into 24 well plates. Growth factors were added after the cells were allowed to adhere overnight. […] After 6 and 9 days the cells were fixed and the amount of proteoglycans synthesized was measured by the Alcian blue assay as described in Example 10.
# [6] = test system: baboon intervertebral disc nucleus pulposus cells; assay: Alcian blue assay of proteoglycan synthesis, baboon cells; conditions: 8 days, 10 ng/ml
# Procedure: as §1
# The foregoing procedure was also applied to sheep and baboon intervertebral nucleus pulposus cells from Example 9 to obtain an indication of the induction of matrix production by exogenous growth factors in sheep and baboon nucleus pulposus cells.
# TGF-β1 and BP were tested for their effects on stimulation of proteoglycan synthesis in baboon nucleus cells. […] The cells were fixed after 4 and 8 days of continuous exposure to growth factors, and proteoglycan synthesis was detected by the Alcian blue assay as described in Example 10.
Compound,"cytotoxicity (MTS, absorbance at 570 nm) [1]","cytotoxicity (MTT) ([2]; 1000 ppm in TCM, by itself (no free radical production), FIG. 29: 24 hours post-UV)",cell death by free radicals from UV light with Irgacure 2959 (MTT) ([2]; 1000 ppm plus 365 nm UV for different lengths of time),increase in proteoglycan synthesis above 0.5% serum control ([3]; 7 day),increase in proteoglycan synthesis above 0.5% serum control ([3]; 10 day) [%],increased production of Type II collagen over controls [4] [%],increased production of chondroitin-6-sulfate over controls [4] [%],"increase in Alcian blue staining over the control ([5]; Example 14 patient, 8 days) [%]","more proteoglycans than control ([5]; Example 15 patient, 6 days) [%]","increased proteoglycan production over controls ([5]; Example 15 patient, 9 days) [%]",increase in proteoglycan synthesis over the control [6] [%]
CC(C)(O)C(=O)c1ccc(OCCO)cc1 [Irgacure 2959],cytocompatible,not significantly cytotoxic,significant only at 5 and 10 min of UV exposure,–,–,–,–,–,–,–,–
C=CN1CCCCCC1=O [vinyl caprolactam],cytocompatible,–,–,–,–,–,–,–,–,–,–
Transforming growth factor-β1 [TGF-β1],–,–,–,not significant,52,115,800,42,54,74,21
